These results are taken from patent US5821240A, “Pyrimido[5,4]-dipyrimidines, pharmaceuticals containing them, their use and processes for the preparation thereof” (Dr. Karl Thomae GmbH, priority 1996, dated 1998).

The structures appear in SMILES notation.

Assay [1] concerns human tumour cell line KB. Description: Inhibition of EGF/TGF-alpha-stimulated KB cell proliferation ([3H]-thymidine incorporation). The class given is cell-based. The conditions noted are these: TGF-alpha 10 ng/ml or EGF 20 ng/ml, serum-free, 60 hours then [3H]-thymidine 16-18 h. The procedure:
KB cells (purchased from ATCC) were passaged in DMEM (BioWhittaker) in the presence of 10% FCS (Boehringer Mannheim), 50 μM beta-mercaptoethanol and standard antibiotics. The EGF-induced DNA synthesis was determined by measuring the incorporation of radioactively labelled thymidine as indicator of EGF/TGF-alpha-stimulated cell proliferation. To do this, the cells were washed twice and 1500 cells per well were plated out in a 96-well plate in 200 μl of IMDM (BioWhittaker) without serum in the presence of 50 μM beta-mercaptoethanol, standard antibiotics, TGF-alpha [10 ng/ml] or EGF [20 ng/ml] and of various concentrations of the substances according to the invention (triplicates, maximum DMSO concentration 1%, see proliferation t t with F/L-HERc cells). After 60 hours, [^3 H]-thymidine (0.1 μCi in 10 μl) was added for about 16-18 h.
(Uptake of a labelled nucleoside into DNA is a usual measure of proliferation.)

For the next assay, the system named is F/L-HERc cells. Description: Inhibition of IL-3-dependent proliferation of F/L-HERc cells. The class given is cell-based. The note with it: Mus musculus, murine IL-3, 37° C., 48 hours. The text has this: (§1) In this case, an interleukin-3 (IL-3)-dependent cell line of murine origin was used and was genetically modified in such a way that it expresses functional human EGF-R. Proliferation of these cells, which are called F/L-HERc, can therefore be stimulated either by murine IL-3 or by EGF (see von Ruden, T. et al. in EMBO J. 7, 2749-2756 (1988) and Pierce, J. H. et al. in Science 239, […] (1988)).
(§2) The starting material for the F/L-HERc cells was the cell line FDC-P1 whose preparation has been described by Dexter, T. M. et al. in J. Exp. Med. 152, 1036-1047 (1980). However, it is also possible as an alternative to use other growth factor-dependent cells (see, for example, Pierce, J. H. et al. in Science 239, 628-631 (1988), Shibuya, H. et al. in Cell 70, 57-67 (1992) and Alexander, W. S. et al. in EMBO J. 10, 3683-3691 (1991)). Recombinant retroviruses as described in von Ruden, T. et al., EMBO J. 7, 2749-2756 (1988) Were used for expression of the human EGF-R cDNA (see Ullrich, A. et al. in Nature 309, 418-425 (1984)), with the difference that the retroviral vector LXSN (see Miller, A. D. et al. in BioTechniques 7, 980-990 (1989)) was employed for expression of the EGF-R cDNA, and the line GP+E86 (see Markowitz, D. et al. in J. Virol. 62, 1120-1124 (1988)) was used as packaging cell.
(§3) F/L-HERc cells were cultivated in RPMI/1640 medium (BioWhittaker), supplemented with 10% fetal calf serum (FCS, Boehringer Mannheim), 2 mM glutamine (BioWhittaker), standard antibiotics and 20 ng/ml human EGF (Promega), at 37° C. and 5% CO2. To investigate the inhibitor activity of the compounds according to the invention, 1.5×10^4 cells were cultivated in the above medium (200 μl) per well in triplicates in 96-well plates, stimulating proliferation of the cells either with EGF (20 ng/ml) or with murine IL-3. The source used for IL-3 was culture supernatants from the cell line X63/0 mIL-3 (see Karasuyama, H. et al. in Eur. J. Immunol. 18, 97-104 (1988)). The compounds according to the invention were dissolved in 100% dimethyl sulphoxide (DMSO) and added in various dilutions to the cultures, with the maximum DMSO concentration being 1%. The cultures were incubated at 37° C. for 48 hours.
(§4) To determine the inhibitory activity of the compounds according to the invention, the relative cell count was measured in O.D. units using the Cell Titre 96™ AQueous Non-Radioactive Cell Proliferation Assay (Promega). The relative cell count was calculated as a percent of the control (F/L-HERc cells without inhibitor), and the concentration of active substance which inhibits the proliferation of the cells by 50% (IC50) was inferred.

Assay [2] concerns F/L-HERc cells expressing human EGF-R. Description: Inhibition of EGF-dependent proliferation of F/L-HERc cells. The conditions noted are these: EGF 20 ng/ml, 37° C., 48 hours. The class given is cell-based, murine cell line; human EGF-R.
From the text: as §1, §2, §3, §4

In general, IC50 refers to the concentration that gives 50% inhibition. A high value points to lower potency. On to `Fc1ccc(Nc2ncnc3cnc(NC4CN5CCC4CC5)nc23)cc1Cl` (racemic) [1(4), (3'RS)-4-[(3-Chloro-4-fluorophenyl)amino]-6-[(3'-quinuclidinyl)amino]pyrimido[5,4-d]pyrimidine], for which the half-maximal inhibitory concentration (IC50) in assay [1] was 100 to 1000 nM; in the assay on F/L-HERc cells, above 10000 nM; in assay [2] it was 15 nM.
In the case of `NCC1CCN(c2ncc3ncnc(Nc4ccc(F)c(Cl)c4)c3n2)CC1` [1(7), 4-[(3-Chloro-4-fluorophenyl)amino]-6-[4-(aminomethyl)-1-piperidinyl]pyrimido[5,4-d]pyrimidine], the IC50 was 100 to 1000 nM in assay [1], above 1000 nM in the assay on F/L-HERc cells and 8 nM in assay [2].
Consider `COC(=O)N1CCC(Nc2ncc3ncnc(Nc4ccc(F)c(Cl)c4)c3n2)CC1` [1(8), 4-[(3-Chloro-4-fluorophenyl)amino]-6-[1-methoxycarbonyl-4-piperidinylamino]pyrimido[5,4-d]pyrimidine], for which the half-inhibitory concentration (IC50) in assay [1] was 100 to 1000 nM; in the assay with F/L-HERc cells, above 10000 nM; in assay [2], 3 nM.
In the case of `Nc1c(Cl)cc(Nc2ncnc3cnc(N[C@H]4CC[C@H](C(=O)O)CC4)nc23)cc1Cl` [1(16), 4-[(4-Amino-3,5-dichlorophenyl)amino]-6-[(trans-4-carboxycyclohexyl)amino]pyrimido[5,4-d]pyrimidine], the IC50 in assay [1] is 100 to 1000 nM; in the assay with F/L-HERc cells it was above 1000 nM; in assay [2], 20 nM.
For `Nc1c(Cl)cc(Nc2ncnc3cnc(N[C@H]4CC[C@H](C(=O)N5CCOCC5)CC4)nc23)cc1Cl` [1(17), 4-[(4-Amino-3,5-dichlorophenyl)amino]-6-[trans-4-(morpholinocarbonyl)cyclohexylamino]pyrimido[5,4-d]pyrimidine], in that order: 100 to 1000 nM, above 1000 nM and 1 nM.
For `Nc1c(Cl)cc(Nc2ncnc3cnc(N[C@H]4CC[C@H](C(=O)N5CCCC5)CC4)nc23)cc1Cl` [1(18), 4-[(4-Amino-3,5-dichlorophenyl)amino]-6-[trans-4-(pyrrolidinocarbonyl)cyclohexylamino]pyrimido[5,4-d]pyrimidine], in that order: 100 to 1000 nM, above 1000 nM and 3 nM.
As to `Fc1ccc(Nc2ncnc3cnc(N4CCC(C5CCNCC5)CC4)nc23)cc1Cl` [1(19), 4-[(3-Chloro-4-fluorophenyl)amino]-6-[4-(4-piperidinyl)-1-piperidinyl]pyrimido[5,4-d]pyrimidine], the IC50 in assay [1] was 100 to 1000 nM; in the assay on F/L-HERc cells, above 1000 nM; in assay [2], 83 nM.
As for `CC(CN1CCCCC1)Nc1ncc2ncnc(Nc3ccc(F)c(Cl)c3)c2n1` (stereo not drawn) [1(20), 4-[(3-Chloro-4-fluorophenyl)amino]-6-[1-(1-piperidinyl)-2-propylamino]pyrimido[5,4-d]pyrimidine], the IC50 is 100 to 1000 nM in assay [1], above 1000 nM in the assay on F/L-HERc cells and 225 nM in assay [2].
In the same order, the values of `CCN(CC)CC(C)Nc1ncc2ncnc(Nc3ccc(F)c(Cl)c3)c2n1` (stereo not drawn) [1(21), 4-[(3-Chloro-4-fluorophenyl)amino]-6-[1-(N,N-diethylamino)-2-propylamino]pyrimido[5,4-d]pyrimidine] are 100 to 1000 nM, above 1000 nM and 300 nM.
For `NCC1CCC(CNc2ncc3ncnc(Nc4ccc(F)c(Cl)c4)c3n2)CC1` (stereo not drawn) [1(22), 4-[(3-Chloro-4-fluorophenyl)amino]-6-[4-(aminomethyl)cyclohexylmethylamino]pyrimido[5,4-d]pyrimidine], in that order: 100 to 1000 nM, above 1000 nM and 43 nM.
Regarding `CC(C)(C)OC(=O)N1CCCC(Nc2ncc3ncnc(Nc4ccc(F)c(Cl)c4)c3n2)CC1` (stereo not drawn) [1(57), 4-[(3-chloro-4-fluorophenyl)amino]-6-[1-tert-butyloxy-carbonyl-4-(azacycloheptyl)amino]pyrimido[5,4-d]pyrimidine], the concentration for half-maximal inhibition (IC50) with F/L-HERc cells was above 10000 nM; in assay [2], 88 nM.
On to `Fc1ccc(Nc2ncnc3cnc(NC4CCCNCC4)nc23)cc1Cl` (stereo not drawn) [1(58), 4-[(3-Chloro-4-fluorophenyl)amino]-6-[4-(azacycloheptyl)amino]pyrimido[5,4-d]pyrimidine], for which the IC50 in the assay on F/L-HERc cells is above 1000 nM; in assay [2], 4 nM.
Regarding `NC[C@H]1CC[C@H](Nc2ncc3ncnc(Nc4ccc(F)c(Cl)c4)c3n2)CC1` [1(59)], the results for the half-maximal inhibitory concentration (IC50) (in the assay with F/L-HERc cells; in assay [2]) were above 1000 nM and 1 nM, respectively.
Regarding `O=C(N[C@H]1CC[C@H](CNc2ncc3ncnc(Nc4ccc(F)c(Cl)c4)c3n2)CC1)OCc1ccccc1` [1(60), 4-[(3-Chloro-4-fluorophenyl)amino]-6-[trans-4-(benzyloxycarbonylamino)cyclohexylmethylamino]pyrimido[5,4-d]pyrimidine], the half-maximal inhibitory concentration (IC50) with F/L-HERc cells was above 10000 nM; in assay [2], 120 nM.
In the same order, the values of `NCC1CCCN(c2ncc3ncnc(Nc4ccc(F)c(Cl)c4)c3n2)C1` (stereo not drawn) [1(61), 4-[(3-Chloro-4-fluorophenyl)amino]-6-[3-aminomethyl-1-piperidinyl]pyrimido[5,4-d]pyrimidine] are above 1000 nM and 50 nM.
In the same order, the values of `Nc1cc(Cl)c(Nc2ncnc3cnc(N[C@H]4CC[C@H](O)CC4)nc23)cc1Cl` [1(62), 4-[(4-Amino-2,5-dichlorophenyl)amino]-6-[trans-4-hydroxycyclohexylamino]pyrimido[5,4-d]pyrimidine] are above 10000 nM and 4 nM.
For `O[C@H]1CC[C@H](Nc2ncc3ncnc(Nc4ccc(-c5ccccc5)cc4)c3n2)CC1` [1(63), 4-[4-Biphenylylamino]-6-[trans-4-hydroxycyclohexylamino]pyrimido[5,4-d]pyrimidine], in that order: above 10000 nM and above 10000 nM.
Turning to `O[C@H]1CC[C@H](Nc2ncc3ncnc(Nc4cccc(Oc5ccccc5)c4)c3n2)CC1` [1(64)], the IC50 in the assay with F/L-HERc cells was above 10000 nM; in assay [2] it was 150 nM.
In the same order, the values of `COC(=O)[C@H]1CC[C@H](Nc2ncc3ncnc(Nc4ccc(F)c(Cl)c4)c3n2)CC1` [Example 1, 4-[(3-Chloro-4-fluorophenyl)amino]-6-[(trans-4-methoxycarbonylcyclohexyl)amino]pyrimido[5,4-d]pyrimidine] are above 10000 nM and 200 nM.
